Measurements from US12679825B2, “Crystalline and amorphous forms of a δ-opioid modulator” (Trevena, Inc., priority 2020, dated 2026).
In brackets after ≈: the same amount, converted by molar mass.

Test: Approximate solubility by solvent addition technique
Format: physicochemical
Details: heating to 40° C. between solvent aliquots; for Approximate Solubility: 20° C.; for solubility: 20 °C, thermodynamic from solid
Procedure: The approximate solubility values of the amorphous free base in the selected solvent systems (see Table 1) was estimated by the solvent addition technique. The following procedure was used for the study: • Approximately 10 mg of material was weighed out into 18×2 mL push-cap vials. • Each solvent/solvent mixture was added to the appropriate vial in 5 volume aliquots (50 μL) until either 1 mL of solvent had been added or until the material dissolved. • In between additions, the sample was stirred at 40° C. • If 1000 μL of solvent was added without dissolution of the material, solubility was calculated to be below this point. • Once addition was complete, all experiments were temperature cycled between 40° C. and 5° C. (1 h hold; 0.1° C./min ramp/cool) for ca. 21 h. • Residual solids were isolated by centrifugation (0.22 μm nylon filter) or by decanting the mother liquor and analyzed by XRPD. • Anti-solvent addition (ASA) at 20° C. was carried out on solutions, followed by further temperature cycling for 21 h. • Any solids were then isolated by centrifugation (0.22 μm nylon filter) or by decanting the mother liquor and analyzed by XRPD. • Experiments which remained solutions had further AS added at 20° C. and were temperature cycled for a further 21 h. • Residual solids were isolated by centrifugation (0.22 μm nylon filter) or by decanting the mother liquor and analyzed by XRPD. • Selected isolated material was dried under vacuum at ambient temperature (ca. 20° C.) for ca. 19-21 h then re-analyzed by XRPD. • Selected dried solids were analyzed by PLM, TG/DSC, DSC, ^1H NMR spectroscopy and HPLC. • Further details can be found in Table 1.
The approximate solubility values of the amorphous free base in a range of different solvent systems was determined at ambient temperature, with heating to 40° C. between solvent aliquots. The solutions and slurries obtained were then used in initial small-scale crystallization trials (see Table 1 for details). […] The material formed gel in water. • Oiling was observed after ASA to experiments carried out in acetone, acetonitrile, DMSO, ethanol, MEK and 2-propanol. • Gum formed after ASA to experiments carried out in anisole, dichloromethane, ethyl acetate, 2-Me THF, toluene, ethanol:water 75:25 v/v and methanol:water 77:23 v/v. • After further temperature cycling, solids were obtained from experiments carried out using tBME, MEK and THF as the initial solvent system. […] (peak at 97° C.) during the first heat. A glass transition with a mid-point half-height of ca. 32° C. was observed during the first cool. […] The residual tBME could not be quantified, due to overlapping signals with the API. Residual heptane was observed, equal to 0.46% w/w, or 0.02 equivalents. • See Table 2 for further details.
Approximate solubility studies were carried out using the amorphous free base in a range of different solvent systems at 20° C., heating to 40° C. between additions of solvent aliquots. […] Poor solubility (≤10 mg/mL) was obtained in water, tBME and heptane, giving limited options for antisolvents. Once the solubility screen was complete, the residual slurries and solutions were temperature cycled, with anti-solvent addition then carried out where experiments remained solutions. […] Poorly crystalline material was isolated from 2-propanol:heptane 20:80 v/v %. Amorphous, or predominantly amorphous material was recovered from 7 experiments, using heptane, dichloromethane:heptane 20:80 v/v %, ethyl acetate:heptane 22:78 v/v %, 2-Me THF:heptane 38:62 v/v %, toluene:heptane 38:62 v/v %, ethanol:water 34:66 v/v % and methanol:water 48:52 v/v %. The remaining experiments yielded gel or oil.

Approximate Solubility (2-Methyl THF): >200 mg/mL
Approximate Solubility (2-Propanol): >200 mg/mL
solubility (2-methyl THF, organic solvent or mixture): > 200 mg/mL
solubility (2-propanol, organic solvent or mixture): > 200 mg/mL
Approximate Solubility (Acetone): >200 mg/mL
Approximate Solubility (Acetonitrile): >200 mg/mL
Approximate Solubility (Anisole): >200 mg/mL
solubility (DMSO, organic solvent or mixture): > 200 mg/mL
Approximate Solubility (DMSO): >200 mg/mL
Approximate Solubility (Dichloromethane): >200 mg/mL
Approximate Solubility (Ethanol): >200 mg/mL
Approximate Solubility (Ethyl acetate): >200 mg/mL
solubility (MEK (methyl ethyl ketone), organic solvent or mixture, MEK): > 200 mg/mL
Approximate Solubility (MEK): >200 mg/mL
Approximate Solubility (Methanol): >200 mg/mL
solubility (THF, organic solvent or mixture): > 200 mg/mL
Approximate Solubility (THF): >200 mg/mL
Approximate Solubility (Toluene): >200 mg/mL
solubility (acetone, organic solvent or mixture): > 200 mg/mL
solubility (acetonitrile, organic solvent or mixture): > 200 mg/mL
solubility (anisole, organic solvent or mixture): > 200 mg/mL
solubility (dichloromethane, organic solvent or mixture): > 200 mg/mL
solubility (ethanol, organic solvent or mixture): > 200 mg/mL
solubility (ethanol:water 75:25 v/v, aqueous with cosolvent or surfactant or cyclodextrin, Ethanol:Water 75:25 v/v): > 200 mg/mL
solubility (ethyl acetate, organic solvent or mixture): > 200 mg/mL
solubility (heptane, organic solvent or mixture): ≤ 10 mg/mL
solubility (methanol, organic solvent or mixture): > 200 mg/mL
solubility (methanol:water 77:23 v/v, aqueous with cosolvent or surfactant or cyclodextrin, Methanol:Water 77:23 v/v): 50 mg/mL (≈ 99.3 mM)
solubility (tBME, organic solvent or mixture): ≤ 10 mg/mL
solubility (toluene, organic solvent or mixture): > 200 mg/mL
solubility (water): ≤ 10 mg/mL
Compound: COCCOc1cccc([C@@H]2CCN(CCn3cccc3)[C@H](C)[C@H]2COc2ccc3c(c2)C(=O)NC3)c1 [free base, (−)-6-{[(trans,trans)-4-[3-(2-methoxyethoxy)phenyl]-2-methyl-1-[2-(1H-pyrrol-1-yl)ethyl]piperidin-3-yl]methoxy}-2,3-dihydro-1H-isoindol-1-one]
